Assay results taken from ChEMBL document CHEMBL1201862, “PubChem BioAssay data set” (2004).
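Following 48 hours of exposure in 96-well plates, responses at five concentrations were used to interpolate endpoints linearly. Abbreviation: GI50, concentration required for 50% inhibition of growth.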 Calls of active or inactive are those of the source. Cut-off read from the data, not from the text of the source: active = GI50 up to about 1.1 µM and inactive = higher.

What was measured:
Test in all cases: NCI tumour cell line growth inhibition, 48 h
U-251 = tested on: U-251
Hs-578T = tested on: Hs-578T
MDA-MB-435 = tested on: MDA-MB-435
SK-MEL-2 = tested on: SK-MEL-2
SK-MEL-5 = tested on: SK-MEL-5
SK-MEL-28 = tested on: SK-MEL-28
OVCAR-8 = tested on: OVCAR-8
TK-10 = tested on: TK-10
RXF 393 = tested on: RXF 393
HL-60 = tested on: HL-60
OVCAR-5 = tested on: OVCAR-5
MOLT-4 = tested on: MOLT-4
SNB-19 = tested on: SNB-19
NCI-H522 = tested on: NCI-H522
IGROV-1 = tested on: IGROV-1
UO-31 = tested on: UO-31
UACC-257 = tested on: UACC-257
K562 = tested on: K562
SNB-75 = tested on: SNB-75
EKVX = tested on: EKVX

| Compound | GI50 (U-251) | GI50 (Hs-578T) | GI50 (MDA-MB-435) | GI50 (SK-MEL-2) | GI50 (SK-MEL-5) | GI50 (SK-MEL-28) | GI50 (OVCAR-8) | GI50 (TK-10) | GI50 (RXF 393) | GI50 (HL-60) | GI50 (OVCAR-5) | GI50 (MOLT-4) | GI50 (SNB-19) | GI50 (NCI-H522) | GI50 (IGROV-1) | GI50 (UO-31) | GI50 (UACC-257) | GI50 (K562) | GI50 (SNB-75) | GI50 (EKVX) |
| --- | --- | --- | --- | --- | --- | --- | --- | --- | --- | --- | --- | --- | --- | --- | --- | --- | --- | --- | --- | --- |
| Cc1cc2cc3c(cc2c(-c2ccc([N+](=O)[O-])cc2)n1)OCO3 | 23.7 µM (inactive) | 23.3 µM (inactive) | 65.9 µM (inactive) | 39.1 µM (inactive) | 17.4 µM (inactive) | 41.1 µM (inactive) | 28.5 µM (inactive) | 43.9 µM (inactive) | 32.7 µM (inactive) | 57.5 µM (inactive) | > 100 µM (inactive) | 22.5 µM (inactive) | 21.2 µM (inactive) | 14.4 µM (inactive) | 15.5 µM (inactive) | 13.5 µM (inactive) | 80.2 µM (inactive) | 60.8 µM (inactive) | 19.7 µM (inactive) | 62.2 µM (inactive) |
| CC(=O)Nc1ccc2c3c(cc(O)c2c1)N(C(=O)CCCCC(=O)N1CC(CCl)c2c1cc(O)c1cc(NC(C)=O)ccc21)CC3CCl (centres undefined) | 0.0285 µM (active) | 0.423 µM (active) | 0.186 µM (active) | 0.144 µM (active) | 0.129 µM (active) | 0.27 µM (active) | 0.253 µM (active) | 2.19 µM (inactive) | 0.153 µM (active) | < 0.01 µM (active) | 1.37 µM (inactive) | < 0.01 µM (active) | 0.0436 µM (active) | 0.0575 µM (active) | 0.352 µM (active) | 3.53 µM (inactive) | 0.181 µM (active) | 0.284 µM (active) | < 0.0395 µM (active) | 2.38 µM (inactive) |
| CCOP(=O)(OCC)C(Nc1ccc(F)cc1)c1cccc([N+](=O)[O-])c1 (centres undefined) | > 100 µM (inactive) | 82.8 µM (inactive) | > 100 µM (inactive) | 49.7 µM (inactive) | 83.9 µM (inactive) | > 100 µM (inactive) | 97.9 µM (inactive) | > 100 µM (inactive) | 54.3 µM (inactive) | 41.3 µM (inactive) | > 100 µM (inactive) | 37.2 µM (inactive) | > 100 µM (inactive) | 63.1 µM (inactive) | 78.9 µM (inactive) | 40.6 µM (inactive) | > 100 µM (inactive) | 38.9 µM (inactive) | > 100 µM (inactive) | 90.4 µM (inactive) |
| O=c1nc(N2CCNCC2)oc2cc(Cl)oc(=O)c12 | 3.91 µM (inactive) | 1.94 µM (inactive) | 4.44 µM (inactive) | 8.49 µM (inactive) | 3.14 µM (inactive) | 3.13 µM (inactive) | 2 µM (inactive) | 9.02 µM (inactive) | 9.1 µM (inactive) | 1.9 µM (inactive) | 15.5 µM (inactive) | 1.76 µM (inactive) | 15.4 µM (inactive) | 1.7 µM (inactive) | 2.7 µM (inactive) | 7.67 µM (inactive) | 7.57 µM (inactive) | 2.55 µM (inactive) | 3.7 µM (inactive) | 6.28 µM (inactive) |
| O=C(/C=C/c1ccc(O)cc1)c1cc(-c2cc(CCC(=O)c3ccc(O)cc3O)ccc2O)c(O)cc1O | 17.5 µM (inactive) | 23.7 µM (inactive) | 17 µM (inactive) | 33.7 µM (inactive) | 25.2 µM (inactive) | 21.7 µM (inactive) | 25.5 µM (inactive) | 18.1 µM (inactive) | 41.5 µM (inactive) | 17.9 µM (inactive) | > 50 µM (inactive) | 7.23 µM (inactive) | 26.8 µM (inactive) | 22.3 µM (inactive) | 16.2 µM (inactive) | > 50 µM (inactive) | > 50 µM (inactive) | 17.7 µM (inactive) | 19.3 µM (inactive) | > 50 µM (inactive) |
| Cc1ccccc1OC(C)C(=O)NN1C(=O)CC(=O)NC1=S (centres undefined) | > 100 µM (inactive) | > 100 µM (inactive) | > 100 µM (inactive) | > 100 µM (inactive) | > 100 µM (inactive) | > 100 µM (inactive) | > 100 µM (inactive) | > 100 µM (inactive) | > 100 µM (inactive) | > 100 µM (inactive) | > 100 µM (inactive) | 94.8 µM (inactive) | > 100 µM (inactive) | > 100 µM (inactive) | > 100 µM (inactive) | > 100 µM (inactive) | > 100 µM (inactive) | > 100 µM (inactive) | > 100 µM (inactive) | > 100 µM (inactive) |
| Cc1cc(N(CCOS(C)(=O)=O)CCOS(C)(=O)=O)ccc1/C=N/c1ccc(-c2csc(-c3ccccc3)n2)c(Cl)c1 | 16.1 µM (inactive) | 18 µM (inactive) | 9.79 µM (inactive) | 21 µM (inactive) | 7.6 µM (inactive) | 21.6 µM (inactive) | 15.9 µM (inactive) | 10.5 µM (inactive) | 2.12 µM (inactive) | 2.45 µM (inactive) | 17.3 µM (inactive) | 2.43 µM (inactive) | 4.66 µM (inactive) | 1.63 µM (inactive) | 8.2 µM (inactive) | 9.75 µM (inactive) | 20.4 µM (inactive) | 6.28 µM (inactive) | 1.8 µM (inactive) | 4.47 µM (inactive) |
| Brc1ccc2c(-c3csc(-c4c[nH]c5ccc(Br)cc45)n3)c[nH]c2c1 | 4.26 µM (inactive) | 5.78 µM (inactive) | 4.46 µM (inactive) | 5.35 µM (inactive) | 3.65 µM (inactive) | 7.59 µM (inactive) | 5.52 µM (inactive) | 3.94 µM (inactive) | 3.02 µM (inactive) | 5.22 µM (inactive) | 2.44 µM (inactive) | 2.84 µM (inactive) | 4.09 µM (inactive) | 2.11 µM (inactive) | 2.43 µM (inactive) | 3.82 µM (inactive) | 7.94 µM (inactive) | 3.53 µM (inactive) | 10.2 µM (inactive) | 1.27 µM (inactive) |
| CCn1c2ccccc2c2ccc(C3C4C(=O)N(c5cccc6ccccc56)C(=O)C4ON3C(C(N)=O)c3ccccc3)cc21 (centres undefined) | 10.8 µM (inactive) | > 25 µM (inactive) | 10.2 µM (inactive) | 12.4 µM (inactive) | 14.2 µM (inactive) | > 25 µM (inactive) | > 25 µM (inactive) | 7.16 µM (inactive) | 9.89 µM (inactive) | 17.7 µM (inactive) | 15.1 µM (inactive) | 7.53 µM (inactive) | > 25 µM (inactive) | > 25 µM (inactive) | 13.4 µM (inactive) | > 25 µM (inactive) | 7.73 µM (inactive) | 14.8 µM (inactive) | > 25 µM (inactive) | 12.9 µM (inactive) |
| CS(=O)(=O)Nc1ccc2c(c1)N(S(C)(=O)=O)CC2CCl (centres undefined) | > 100 µM (inactive) | > 100 µM (inactive) | > 100 µM (inactive) | > 100 µM (inactive) | > 100 µM (inactive) | > 100 µM (inactive) | > 100 µM (inactive) | > 100 µM (inactive) | > 100 µM (inactive) | > 100 µM (inactive) | > 100 µM (inactive) | > 100 µM (inactive) | – | > 100 µM (inactive) | > 100 µM (inactive) | > 100 µM (inactive) | > 100 µM (inactive) | > 100 µM (inactive) | > 100 µM (inactive) | > 100 µM (inactive) |
| O=C(Nc1cccc(-c2cn3ccccc3n2)c1)c1ccncc1 | 48.2 µM (inactive) | 38.1 µM (inactive) | 31.9 µM (inactive) | 22.6 µM (inactive) | 24.3 µM (inactive) | 48.5 µM (inactive) | 34 µM (inactive) | 56.9 µM (inactive) | 64.4 µM (inactive) | 20.1 µM (inactive) | > 100 µM (inactive) | 21.7 µM (inactive) | 99.3 µM (inactive) | 23.6 µM (inactive) | 40.9 µM (inactive) | 43.1 µM (inactive) | 29.9 µM (inactive) | 24.6 µM (inactive) | 46.1 µM (inactive) | 60.1 µM (inactive) |
| CN(C)CC/C=C1\c2ccccc2Sc2ccc(Cl)cc21 | 12.7 µM (inactive) | 14.4 µM (inactive) | 10.3 µM (inactive) | 16.1 µM (inactive) | 14 µM (inactive) | 6.21 µM (inactive) | 15.5 µM (inactive) | 14.5 µM (inactive) | 12.5 µM (inactive) | 11.2 µM (inactive) | 13.9 µM (inactive) | 11.5 µM (inactive) | 15.5 µM (inactive) | 12.6 µM (inactive) | 11.9 µM (inactive) | 9.4 µM (inactive) | 6.87 µM (inactive) | 5.16 µM (inactive) | 12.3 µM (inactive) | 10.1 µM (inactive) |
| C=C[C@@]1(C)CC(=O)[C@]2(O)[C@@]3(C)[C@@H](O)CCC(C)(C)[C@@H]3[C@H](O)[C@@H](OC(C)=O)[C@@]2(C)O1 | > 100 µM (inactive) | 70.1 µM (inactive) | > 100 µM (inactive) | > 100 µM (inactive) | > 100 µM (inactive) | > 100 µM (inactive) | > 100 µM (inactive) | > 100 µM (inactive) | 11.2 µM (inactive) | 48.6 µM (inactive) | 72.6 µM (inactive) | 30.2 µM (inactive) | > 100 µM (inactive) | > 100 µM (inactive) | > 100 µM (inactive) | 60.4 µM (inactive) | > 100 µM (inactive) | > 100 µM (inactive) | > 100 µM (inactive) | > 100 µM (inactive) |
| O=C(O)c1nc2ccc(C(F)(F)F)cc2nc1Nc1ccc(Cl)c(Cl)c1 | 3.93 µM (inactive) | 18.4 µM (inactive) | 5.74 µM (inactive) | 2.31 µM (inactive) | 10.6 µM (inactive) | 13 µM (inactive) | 4.91 µM (inactive) | 20 µM (inactive) | 13.4 µM (inactive) | 5.62 µM (inactive) | 14.4 µM (inactive) | 4.37 µM (inactive) | 2.16 µM (inactive) | 2.95 µM (inactive) | 12.8 µM (inactive) | 4.48 µM (inactive) | 29.2 µM (inactive) | 3.66 µM (inactive) | 13.2 µM (inactive) | 7.26 µM (inactive) |
